ChEMBL document CHEMBL5104187, “Discovery of 2-(1-(3-Chloro-4-cyanophenyl)-1H-pyrazol-3-yl)acetamides as Potent, Selective, and Orally Available Antagonists Targeting the Androgen Receptor” (J Med Chem, 2022)
Calls of active or inactive are those of the source. No cut-off for these calls is given here.

Key:
Androgen receptor [1] = target: T1, Androgen receptor (Homo sapiens, UniProt P10275); experiment: Antagonist activity at androgen receptor (unknown origin) in human LNCap-ARR2PB-eGFP cells by measuring fluorescence intensity measured after 3 days by transcriptional assay; format: cell-based
T1 sequence (P10275 whole entry): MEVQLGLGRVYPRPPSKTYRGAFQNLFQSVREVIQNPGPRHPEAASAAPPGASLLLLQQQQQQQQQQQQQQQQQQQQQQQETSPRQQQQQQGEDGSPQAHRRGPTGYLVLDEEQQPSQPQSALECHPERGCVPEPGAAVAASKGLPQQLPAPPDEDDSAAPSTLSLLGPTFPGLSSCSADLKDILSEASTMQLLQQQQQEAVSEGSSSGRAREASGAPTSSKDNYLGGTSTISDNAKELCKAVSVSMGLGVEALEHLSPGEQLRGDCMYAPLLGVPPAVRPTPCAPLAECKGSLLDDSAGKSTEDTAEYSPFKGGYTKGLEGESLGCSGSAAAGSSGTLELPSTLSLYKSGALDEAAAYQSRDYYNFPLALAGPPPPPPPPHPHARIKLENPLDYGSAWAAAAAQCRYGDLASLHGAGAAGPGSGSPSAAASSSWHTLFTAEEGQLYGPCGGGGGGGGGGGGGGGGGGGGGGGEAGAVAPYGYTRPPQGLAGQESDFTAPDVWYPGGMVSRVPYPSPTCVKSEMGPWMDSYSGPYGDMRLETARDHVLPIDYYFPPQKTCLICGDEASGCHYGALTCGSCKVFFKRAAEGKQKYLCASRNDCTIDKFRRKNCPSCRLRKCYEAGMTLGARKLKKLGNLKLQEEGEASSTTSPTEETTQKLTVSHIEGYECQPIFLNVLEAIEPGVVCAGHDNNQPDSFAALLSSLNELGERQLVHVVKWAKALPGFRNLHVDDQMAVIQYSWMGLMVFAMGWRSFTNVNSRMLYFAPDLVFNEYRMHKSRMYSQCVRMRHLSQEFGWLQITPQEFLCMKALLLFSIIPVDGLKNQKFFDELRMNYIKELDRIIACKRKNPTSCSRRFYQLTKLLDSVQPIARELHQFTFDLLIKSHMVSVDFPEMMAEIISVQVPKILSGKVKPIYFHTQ

LNCaP [2] = experiment: Cytotoxicity against human LNCAP cells assessed as inhibition of cell proliferation by MTT assay; format: functional, cell-based
[3] = Antagonist activity at mineralocorticoid receptor (unknown origin) transfected in PC-3 cells assessed as inhibition of […]-stimulated transcriptional activity after 3 days by dual luciferase reporter assay; format: cell-based; details: Homo sapiens, PC-3, 72 h
[4] = Cytotoxicity against human Chang liver cells assessed as inhibition of cell proliferation by MTT assay; format: toxicity, cell-based
[5] = Cytotoxicity against human GES1 cells assessed as inhibition of cell proliferation by MTT assay; format: toxicity, cell-based
[6] = Inhibition of PSA secretion in human LNCaP ARR2PB-eGFP cells measured after 3 days by immuno assay; format: functional, cell-based; details: 72 h
Androgen receptor [7] = target: T2, Androgen receptor (Homo sapiens, UniProt P10275, F877L/T878A); experiment: Antagonist activity at androgen receptor F877L/T877A dual mutant (unknown origin) expressed in PC-3 cells assessed as inhibition of transcriptional activity measured after 24 hrs by dual luciferase assay; format: cell-based
Androgen receptor [8] = target: T1, Androgen receptor
Androgen receptor [9] = target: T2, Androgen receptor; experiment: Antagonist activity at androgen receptor F876L/T877A mutant in human PC-3 cells assessed as inhibition of transcriptional activity measured after 24 hrs by luminescence based microplate reader assay; format: cell-based
Androgen receptor [10] = target: T3, Androgen receptor (Homo sapiens, UniProt P10275, F877L); experiment: Antagonist activity at androgen receptor F877L mutant (unknown origin) expressed in PC-3 cells assessed as inhibition of transcriptional activity measured after 24 hrs by dual luciferase assay; format: cell-based
Androgen receptor [11] = target: T3, Androgen receptor; experiment: Antagonist activity at androgen receptor F877L mutant in human PC-3 cells assessed as inhibition of transcriptional activity measured after 24 hrs by luminescence based microplate reader assay; format: cell-based
[12] = target: T4, Androgen receptor (Homo sapiens) (UniProt P10275); experiment: Antagonist activity at human AR AF2 assessed as inhibition of fluorescent-labelled D11-FxxLF peptide Co-activator to receptor by TR-FRET assay; details: filed as antagonist
T4 sequence (whole entry): T1 sequence (P10275 whole entry)

[13] = Antagonist activity at androgen receptor T878G mutant (unknown origin) expressed in PC-3 cells assessed as inhibition of transcriptional activity measured after 24 hrs by dual luciferase assay; format: cell-based; details: Homo sapiens, PC-3, 24 h
LNCaP [14] = experiment: Antitumor activity against human LNCAP cells xenografted in CB17-SCID mouse model assessed as inhibition of tumor growth at 40 mg/kg/day, po measured upto 4 weeks; format: functional, organism-based
LNCaP [15] = experiment: Antitumor activity against human LNCAP cells xenografted in CB17-SCID mouse model assessed as inhibition of tumor growth at 100 mg/kg/day, po measured upto 4 weeks; format: functional, organism-based
[16] = Toxicity in CB17 SCID mouse xenografted with human LNCAP cells assessed as body weight loss at 100 mg/kg/day,po measured upto 4 weeks; format: organism-based; details: in vivo, 672 h

T3 sequence (P10275 whole entry F877L): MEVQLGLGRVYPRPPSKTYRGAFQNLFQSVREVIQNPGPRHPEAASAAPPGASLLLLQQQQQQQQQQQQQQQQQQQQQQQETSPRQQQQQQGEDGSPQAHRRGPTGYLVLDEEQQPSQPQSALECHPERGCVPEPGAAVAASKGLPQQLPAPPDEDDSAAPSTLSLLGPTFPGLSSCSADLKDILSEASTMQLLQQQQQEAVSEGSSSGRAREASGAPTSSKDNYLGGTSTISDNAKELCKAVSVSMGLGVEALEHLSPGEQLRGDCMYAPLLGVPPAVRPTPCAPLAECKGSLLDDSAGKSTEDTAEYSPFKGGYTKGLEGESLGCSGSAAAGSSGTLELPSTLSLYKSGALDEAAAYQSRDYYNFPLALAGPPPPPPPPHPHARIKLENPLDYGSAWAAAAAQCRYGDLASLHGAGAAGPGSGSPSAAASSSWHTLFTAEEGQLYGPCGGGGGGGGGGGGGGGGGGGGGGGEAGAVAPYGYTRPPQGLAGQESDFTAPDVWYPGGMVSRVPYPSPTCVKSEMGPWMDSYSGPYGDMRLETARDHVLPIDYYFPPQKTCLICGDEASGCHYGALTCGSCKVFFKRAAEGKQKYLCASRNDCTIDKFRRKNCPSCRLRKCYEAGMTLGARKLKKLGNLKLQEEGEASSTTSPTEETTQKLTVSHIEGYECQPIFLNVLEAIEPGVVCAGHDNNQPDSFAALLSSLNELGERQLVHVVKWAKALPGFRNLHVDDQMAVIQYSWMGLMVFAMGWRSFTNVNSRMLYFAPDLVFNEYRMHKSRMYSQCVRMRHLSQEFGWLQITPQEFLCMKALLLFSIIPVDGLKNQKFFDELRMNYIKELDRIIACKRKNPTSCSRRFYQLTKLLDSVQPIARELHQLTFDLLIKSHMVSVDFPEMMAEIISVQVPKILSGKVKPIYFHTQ
T2 sequence (P10275 whole entry F877L/T878A): as the sequence (P10275 whole entry F877L) above, with T878A counted along it

Row | SMILES | IC50 (Androgen receptor [1]) | further results
1 | N#Cc1ccc(-n2ccc(CNC(=O)c3ccc(F)nc3)n2)cc1C(F)(F)F | 0.78 µM | 
2 | CNC(=O)c1ccc(N2C(=S)N(c3ccc(C#N)c(C(F)(F)F)c3)C(=O)C2(C)C)cc1F [ENZALUTAMIDE] |  | IC50 (LNCaP [2]): 26.3 µM; IC50 [3]: 0.13 µM; IC50 [4]: 64.7 µM; IC50 [5]: 96.9 µM; IC50 [6]: 0.48 µM
3 | N#Cc1ccc(-n2ccc(CC(=O)Nc3ccc(F)cn3)n2)cc1Cl | 0.17 µM | 
4 | N#Cc1ccc(C(=O)NCCc2ccn(-c3ccc(C#N)c(C(F)(F)F)c3)n2)cc1 | > 25 µM | 
5 | N#Cc1ccc(-n2cc(-c3ccccc3)c(CNC(=O)c3ccc(F)cc3)n2)cc1C(F)(F)F | > 25 µM | 
6 | N#Cc1ccc(-n2ccc(C(=O)Nc3ccc(F)cn3)n2)cc1C(F)(F)F | > 25 µM | 
7 | N#Cc1ccc(-n2ccc(CNS(=O)(=O)c3ccc(F)cc3)n2)cc1C(F)(F)F | > 25 µM | 
8 | N#Cc1ccc(-n2ccc(C(=O)Nc3ccncc3)n2)cc1C(F)(F)F | > 25 µM | 
9 | N#Cc1ccc(-n2ccc(CNC(=O)c3ccc(C(F)(F)F)cc3)n2)cc1C(F)(F)F | > 25 µM | 
10 | O=C(Cc1ccn(-c2ccc([N+](=O)[O-])c(C(F)(F)F)c2)n1)Nc1ccc(F)nc1 | 0.36 µM | 
11 | N#Cc1ccc(-n2cc(C(F)(F)F)c(CNC(=O)c3ccc(F)cc3)n2)cc1C(F)(F)F | 16.2 µM | 
12 | O=C(Cc1ccn(-c2ccc([N+](=O)[O-])c(C(F)(F)F)c2)n1)Nc1ccc(F)cn1 | 2.57 µM | 
13 | N#Cc1ccc(-n2ccc(CCNC(=O)c3ccc([N+](=O)[O-])cc3)n2)cc1C(F)(F)F | > 25 µM | 
14 | CC(O)c1cc(C(=O)N[C@H](C)Cn2ccc(-c3ccc(C#N)c(Cl)c3)n2)n[nH]1 (stereo partly specified) |  | IC50 [13]: 0.69 µM
15 | N#Cc1ccc(-n2ccc(CC(=O)Nc3ccc(F)cc3)n2)cc1Cl | 0.22 µM | 
16 | N#Cc1ccc(-n2ccc(NC(=O)c3ccc(F)cc3)n2)cc1C(F)(F)F | > 25 µM | 
17 | CNC(=O)c1ccc(C(=O)NCc2ccn(-c3ccc(C#N)c(C(F)(F)F)c3)n2)cc1F | > 25 µM | 
18 | N#Cc1ccc(-n2ccc(CNC(=O)c3ccc([N+](=O)[O-])cc3)n2)cc1C(F)(F)F | 1.85 µM | 
19 | Cc1cn(-c2ccc(C#N)c(C(F)(F)F)c2)nc1CNC(=O)c1ccc(F)cc1 | 0.22 µM | 
20 | Cc1cn(-c2ccc(C#N)c(C(F)(F)F)c2)nc1CNC(=O)c1ccc([N+](=O)[O-])cc1 | 0.45 µM | 
21 | N#Cc1ccc(C(=O)NCCCc2ccn(-c3ccc(C#N)c(C(F)(F)F)c3)n2)cc1 | > 25 µM | 
22 | N#Cc1ccc(-n2ccc(CC(=O)Nc3ccc(F)nc3)n2)cc1Cl | 0.069 µM | Activity (LNCaP [14]): Active; IC50 (Androgen receptor [7]): 0.27 µM; Kd (Androgen receptor [8]): 20.5 µM; IC50 (LNCaP [2]): 6.23 µM; Activity (LNCaP [15]): Active; IC50 [3]: 5.54 µM; Activity [16]: Non-Toxic; IC50 [4]: > 1000 µM; IC50 (Androgen receptor [9]): 0.27 µM; IC50 [5]: > 1000 µM; IC50 (Androgen receptor [10]): 0.46 µM; IC50 (Androgen receptor [11]): 0.17 µM; IC50 [6]: 0.89 µM; Activity [12]: Active; IC50 [13]: 0.045 µM
23 | CC(O)c1cc(C(=O)NCc2ccn(-c3ccc(C#N)c(C(F)(F)F)c3)n2)n[nH]1 (stereo unspecified) | > 25 µM | 
24 | Cc1cn(-c2ccc(C#N)c(C(F)(F)F)c2)nc1CNC(=O)c1ccc(C#N)cc1 | 14.9 µM | 
25 | N#Cc1ccc(-n2ccc(CCCNC(=O)c3ccc(F)cc3)n2)cc1C(F)(F)F | > 25 µM | 
26 | N#Cc1ccc(-n2ccc(CNC(=O)c3ccc(F)cn3)n2)cc1C(F)(F)F | 5.82 µM | 
27 | N#Cc1ccc(-n2ccc(C(=O)Nc3ccc(F)nc3)n2)cc1C(F)(F)F | > 25 µM | 
28 | N#Cc1ccc(-n2ccc(CCCNC(=O)c3ccc([N+](=O)[O-])cc3)n2)cc1C(F)(F)F | > 25 µM | 

Now from value to molecule, other results behind:

Row | IC50 (Androgen receptor [1]) | SMILES | further results
29 | 0.34 µM | N#Cc1ccc(-n2ccc(CC(=O)Nc3ccc(F)cn3)n2)cc1C(F)(F)F | 
30 | 0.3 µM | N#Cc1ccc(C(=O)NCc2ccn(-c3ccc(C#N)c(C(F)(F)F)c3)n2)cc1 | 
31 | > 25 µM | CC(C)(O)c1ccc(C(=O)NCc2ccn(-c3ccc(C#N)c(C(F)(F)F)c3)n2)cc1 | 
32 | 0.14 µM | N#Cc1ccc(-n2ccc(CC(=O)Nc3ccc(F)nc3)n2)cc1C(F)(F)F | IC50 (Androgen receptor [7]): 1.12 µM; Kd (Androgen receptor [8]): 8.99 µM; IC50 (LNCaP [2]): 8.84 µM; IC50 [3]: 16.3 µM; IC50 [4]: > 1000 µM; IC50 (Androgen receptor [9]): 1.12 µM; IC50 [5]: > 1000 µM; IC50 (Androgen receptor [10]): 1.31 µM; IC50 (Androgen receptor [11]): 1.31 µM; IC50 [6]: 1.75 µM; Activity [12]: Active; IC50 [13]: 0.31 µM
33 | 1.15 µM | N#Cc1ccc(-n2ccc(CNC(=O)c3ccc(Cl)cc3)n2)cc1C(F)(F)F | 
34 | 4.53 µM | Cc1ccc(NC(=O)Cc2ccn(-c3ccc(C#N)c(C(F)(F)F)c3)n2)cc1 | 
35 | 0.34 µM | O=C(Cc1ccn(-c2ccc([N+](=O)[O-])c(C(F)(F)F)c2)n1)Nc1ccc(F)cc1 | 
36 | 0.05 µM | N#Cc1ccc(NC(=O)Cc2ccn(-c3ccc(C#N)c(C(F)(F)F)c3)n2)cc1 | 
37 | > 25 µM | N#Cc1ccc(-n2ccc(C(=O)Nc3ccc(F)cc3)n2)cc1C(F)(F)F | 
38 | > 25 µM | N#Cc1ccc(-n2ccc(NC(=O)Nc3ccc(F)cc3)n2)cc1C(F)(F)F | 
39 | > 25 µM | N#Cc1ccc(NC(=O)c2ccn(-c3ccc(C#N)c(C(F)(F)F)c3)n2)cc1 | 
40 | 0.21 µM | N#Cc1ccc(-n2ccc(CC(=O)Nc3ccc(F)c(F)c3)n2)cc1C(F)(F)F | 
41 | > 25 µM | N#Cc1ccc(-n2ccc(CCNC(=O)c3ccc(F)cc3)n2)cc1C(F)(F)F | 
42 | > 25 µM | N#Cc1ccc(-n2ccc(CNC(=O)Nc3ccc(F)cc3)n2)cc1C(F)(F)F | 
43 | 0.76 µM | N#Cc1ccc(-n2ccc(CNC(=O)c3ccc(F)cc3)n2)cc1C(F)(F)F | 
44 | 9.2 µM | COc1ccc(NC(=O)Cc2ccn(-c3ccc(C#N)c(C(F)(F)F)c3)n2)cc1 | 
45 | 0.12 µM | N#Cc1ccc(-n2ccc(CC(=O)Nc3ccc(F)cc3)n2)cc1C(F)(F)F | IC50 (Androgen receptor [7]): 0.25 µM; Kd (Androgen receptor [8]): 10 µM; IC50 (LNCaP [2]): 5.85 µM; IC50 [3]: 4.43 µM; IC50 [4]: > 1000 µM; IC50 (Androgen receptor [9]): 0.25 µM; IC50 [5]: > 1000 µM; IC50 (Androgen receptor [10]): 0.91 µM; IC50 (Androgen receptor [11]): 0.91 µM; IC50 [6]: 3.91 µM; Activity [12]: Active; IC50 [13]: 0.08 µM
46 | 0.08 µM | N#Cc1ccc(-n2ccc(CC(=O)Nc3ccc([N+](=O)[O-])cc3)n2)cc1C(F)(F)F | 
47 | > 25 µM | N#Cc1ccc(-n2ccc(CC(=O)Nc3ccncc3)n2)cc1C(F)(F)F | 
48 | 6.34 µM | N#Cc1cc(NC(=O)Cc2ccn(-c3ccc(C#N)c(C(F)(F)F)c3)n2)ccc1F | 
